In assay [1] the test system is S. aureus Human ATCC 25923. Nature of the assay: MIC determination, S. aureus human ATCC 25923. The assay is classed as cell-based. To be noted: Staphylococcus aureus, ATCC25923; Gram-positive; Mueller-Hinton medium, 24 h at 37° C. The procedure, abridged:
(§1)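 Broth microdilution in Mueller-Hinton medium, inoculum at OD 0.01, compounds (5 mg/mL stock in DMSO/methanol 50/50) serially diluted twofold. Plates incubated 24 h at 37° C. under humid atmosphere, read at OD 620 nm for MIC; duplicates.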

For the next assay, the system named is C. albicans. Nature of the assay: Antifungal activity, cascade microdilution. The assay is classed as cell-based. Particulars: Candida albicans, 24 h, read-out: IC50 (μg/mL) C. albicans. In general terms: Broth dilution looks for growth in wells or tubes with falling amounts of substance.
For a further assay, the system named is S. aureus Animal (340). Nature of the assay: MIC determination, S. aureus animal (340). The assay is classed as cell-based. Particulars: Staphylococcus aureus; Gram-positive; Mueller-Hinton medium, 24 h at 37° C. The procedure, abridged:
as §1

Assay [2] has as its system P. aeruginosa Human ATCC 27853. Nature of the assay: MIC determination, P. aeruginosa human ATCC 27853. The assay is classed as cell-based. Particulars: Pseudomonas aeruginosa, ATCC27853; Gram-negative; Mueller-Hinton medium, 24 h at 37° C. The procedure, abridged: as §1
In assay [3] the test system is P. aeruginosa (1051575). Nature of the assay: Potentiation of chloramphenicol activity (combination MIC). The assay is classed as cell-based, Pseudomonas aeruginosa. To be noted: chloramphenicol 2 μg/mL; concentration of compound required to restore antibiotic activity. The procedure:
This method requires the use of a 96-well plate: 100 μL of a liquid culture medium are placed in each well and then seeded with the microbial suspension prepared previously. The required volume to be seeded is calculated for an OD of 0.01, which corresponds to about 5×10^6 bacteria in each well. In this plate, the first line corresponds to a negative control (200 μL of sterile culture medium in each well), the second line corresponds to a positive control (100 μL of sterile culture medium+100 μL of the bacterial suspension), and the third line contains 192 μL of culture medium; 8 μL of compound of formula (I) to be tested are placed in each well. Thereafter, a cascade dilution is performed from this line. […] 92 μL of bacterial suspension are then added to lines 3 to 8. The results are read (the determination of the MIC (2 μg/mL of doxycycline) in the presence of X g/mL of compound of formula (I)) after 24 hours of incubation at 37° C. under a humid atmosphere. After 24 hours of incubation at 37° C., 40 μL of nitro tetrazolium iodide are added to each well to reveal the presence of live bacteria by staining the medium pink.
The procedure is identical to that indicated in Example 5 above. […]
(§2) The results are given in table V. They indicate the concentration of compound of formula (I) required to be able to restore the activity of the antibiotic under consideration.

Assay [4] deals with S. intermedius Animal (1051997). Nature of the assay: MIC determination, S. intermedius animal (1051997). Particulars: Staphylococcus intermedius; Gram-positive; Mueller-Hinton medium, 24 h at 37° C. The assay is classed as cell-based. Summed up: as §1
The test system of the next assay is E. coli Animal (1956). Nature of the assay: MIC determination, E. coli animal (1956). Type of assay: cell-based. To be noted: Escherichia coli; Gram-negative; Mueller-Hinton medium, 24 h at 37° C. The procedure, abridged:
as §1

The subject of a further assay is E. coli Human ATCC 28922. Nature of the assay: MIC determination, E. coli human ATCC 28922. Type of assay: cell-based. To be noted: Escherichia coli, ATCC28922; Gram-negative; Mueller-Hinton medium, 24 h at 37° C. Summed up: as §1
Assay [5] deals with P. aeruginosa Animal (1051575). Nature of the assay: MIC determination, P. aeruginosa animal (1051575). Type of assay: cell-based. To be noted: Pseudomonas aeruginosa; Gram-negative; Mueller-Hinton medium, 24 h at 37° C. The procedure, abridged:
as §1

In another assay the test system is CHO-K1 cells. Nature of the assay: WST1 cytotoxicity test on CHO-K1 cells. Particulars: Cricetulus griseus. Type of assay: cell-based, Chinese hamster. Summed up:
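CHO-K1 cells pre-grown 24 h, then exposed to increasing compound concentrations in duplicate for 24 h at 37° C, 5% CO2. Viability read after 20 min with 10% WST-1 in PBS at 450 nm; IC50 from nonlinear regression as concentration cutting viability 50%.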
(In general: Tetrazolium dyes change colour on reduction, which living cells bring about.)

For assay [6], the system named is P. aeruginosa (1051575). Nature of the assay: Potentiation of doxycycline activity (combination MIC). Type of assay: cell-based, Pseudomonas aeruginosa. To be noted: in presence of doxycycline 2 μg/mL; 24 hours at 37° C.
Assay [7] has as its system P. aeruginosa (1051575). Nature of the assay: Potentiation of erythromycin activity (combination MIC). Type of assay: cell-based, Pseudomonas aeruginosa. Particulars: erythromycin 2 μg/mL; concentration of compound required to restore antibiotic activity. The procedure: This method requires the use of a 96-well plate: 100 μL of a liquid culture medium are placed in each well and then seeded with the microbial suspension prepared previously. The required volume to be seeded is calculated for an OD of 0.01, which corresponds to about 5×10^6 bacteria in each well. In this plate, the first line corresponds to a negative control (200 μL of sterile culture medium in each well), the second line corresponds to a positive control (100 μL of sterile culture medium+100 μL of the bacterial suspension), and the third line contains 192 μL of culture medium; 8 μL of compound of formula (I) to be tested are placed in each well. Thereafter, a cascade dilution is performed from this line. L of a doxycycline solution (1 mg dissolved in 20 mL) are then added to each well of lines 3 to 8 to obtain a final antibiotic concentration of 2 μg/mL. 92 μL of bacterial suspension are then added to lines 3 to 8. The results are read (the determination of the MIC (2 μg/mL of doxycycline) in the presence of X g/mL of compound of formula (I)) after 24 hours of incubation at 37° C. under a humid atmosphere. After 24 hours of incubation at 37° C., 40 μL of nitro tetrazolium iodide are added to each well to reveal the presence of live bacteria by staining the medium pink.
The procedure is identical to that indicated in Example 5 above. 8 μL of an antibiotic solution under consideration (1 mg dissolved in 20 mL) are added to obtain a final antibiotic concentration of 2 μg/mL instead of 8 μL of a doxycycline solution.
as §2

Another assay relates to P. aeruginosa (PAO1). Nature of the assay: MIC of doxycycline alone on PAO1. The assay is classed as cell-based. To be noted: Pseudomonas aeruginosa, Gram-negative strain P. aeruginosa (PAO1). As for the experimental part:
On the Gram-negative strain of P. aeruginosa (PAO1), doxycycline has an MIC of 40 μg/mL.

The structures appear in SMILES notation. ≈ marks a conversion by molar mass, not a printed value. Like-named read-outs stand apart in the source and are kept apart here.

The results in this text go back to patent publication US10780101B2, “Amide derivatives of squalamine for the treatment of infections” (VIRBAC, priority 2016, dated 2020).

A word on the MIC: it is the lowest concentration found to suppress growth.

With `CCN(CC)C(=O)CC[C@@H](C)[C@H]1CCC2C3C(CC[C@@]21C)[C@@]1(C)CC[C@H](NCCCN(CCCN)CCCN)CC1C[C@H]3O` (stereo partly drawn) [(44), 3β-(tris(3-aminopropyl)amine)-N,N-diethylchenodeoxycholamide], the MIC in assay [1] came to 2 µg/mL (≈ 3.24 µM); in the assay on S. aureus Animal (340), 4 µg/mL (≈ 6.47 µM); in [2], 60 µg/mL (≈ 97.1 µM); in [4], 2 µg/mL (≈ 3.24 µM); against E. coli Animal (1956), 30 µg/mL (≈ 48.5 µM); with E. coli Human ATCC 28922, 15 µg/mL (≈ 24.3 µM). In assay [5], this compound returned an MIC of 60 µg/mL (≈ 97.1 µM). The IC50 came out at 0.5 µg/mL (≈ 0.809 µM) in the assay on C. albicans; 75 µg/mL (≈ 121 µM) in the assay with CHO-K1 cells (CHO-K1, 24 h, read-out: IC50 (μg/mL) CHO); 75 µg/mL (≈ 121 µM) with CHO-K1 cells (CHO-K1, read-out: IC50 (μg/mL) CHO). The “MIC P. aeruginosa (1051575) compound + chloramphenicol” value with P. aeruginosa (1051575) [3] was found to be 4 µg/mL. The “MIC - P. aeruginosa (1051575): content of compound of formula (I) to restore the doxycycline activity (at 2 μg/mL)” value with P. aeruginosa (1051575) [6] was 2 µg/mL. Further, the “MIC P. aeruginosa (1051575) compound + erythromycin” value in the assay with P. aeruginosa (1051575) [7] came to 8 µg/mL.
For `C[C@H]1c2cccc(O)c2C(=O)C2=C(O)[C@]3(O)C(=O)C(C(N)=O)=C(O)[C@@H](N(C)C)[C@@H]3[C@@H](O)[C@@H]21` [doxycycline], the MIC with P. aeruginosa (PAO1) is 40 µg/mL.
